In brackets after ≈: the same amount, converted by molar mass. Activity calls are given as the source filed them. The calls are words filed in the database; no cut-off is given here.
Key:
Human alphaherpesvirus 2 [1] = assay: Antiviral activity against Herpes simplex virus 2 assessed as inhibition of virus-induced cytopathic effect at 50 ug/ml after 72 hrs by two-fold dilution method; format: functional, organism-based
Equine rhinovirus = assay: Antiviral activity against Equine rhinovirus assessed as inhibition of virus-induced cytopathic effect after 48 hrs by two-fold dilution method
Human alphaherpesvirus 2 [2] = assay: Antiviral activity against Herpes simplex virus 2 assessed as inhibition of virus-induced cytopathic effect after 72 hrs by two-fold dilution method; format: functional; settings: Human alphaherpesvirus 2, 72 h
Human alphaherpesvirus 1 = assay: Antiviral activity against Herpes simplex virus 1 Sheely assessed as inhibition of virus-induced cytopathic effect at 37 degC after 72 hrs by two-fold dilution method; format: functional; settings: Human alphaherpesvirus 1, Sheely
Human alphaherpesvirus 2 [3] = assay: Antiviral activity against Herpes simplex virus 2 Curtis assessed as inhibition of virus-induced cytopathic effect at 37 degC after 72 hrs by two-fold dilution method; format: functional; settings: Human alphaherpesvirus 2, Curtis

Structure (SMILES) | inhibition (Human alphaherpesvirus 2 [1]) | MIC (Equine rhinovirus) [mg/L] | MIC (Human alphaherpesvirus 2 [2]) [mg/L] | also measured
CCC(=O)C(CCCCCCOc1cccc(N(C)C)c1)C(=O)CC | inactive | 6 (≈ 17.3 µM) | – | –
CCC(=O)C(CCCCCCOc1ccccc1[N+](=O)[O-])C(=O)CC | – | 6 (≈ 17.2 µM) | 6 (≈ 17.2 µM) | –
CCC(=O)C(CCCCCCCCOc1ccc(OC)cc1Cl)C(=O)CC | – | 3 (≈ 7.56 µM) | 3 (≈ 7.56 µM) | –
CCC(=O)C(CCCCCCOc1ccc(C(C)=O)cc1OC)C(=O)CC | – | – | 12 (≈ 31.9 µM) | –
CCC(=O)C(CCCCCCCOc1ccc2c(c1)OCO2)C(=O)CC | inactive | 6 (≈ 16.6 µM) | – | –
CCC(=O)C(CCCCCCOc1ccc(OC(=O)CCCN2CCOCC2)cc1)C(=O)CC | – | 12 (≈ 25.2 µM) | 12 (≈ 25.2 µM) | –
CCC(=O)C(CCCCCCOc1ccc(OC)cc1[N+](=O)[O-])C(=O)CC | – | 3 (≈ 7.91 µM) | 6 (≈ 15.8 µM) | –
CCC(=O)C(CCCCCCOc1c(Cl)c(Cl)c(Cl)c(Cl)c1Cl)C(=O)CC | inactive | 12 (≈ 25.2 µM) | – | –
COc1ccc(OCCCCCCC(C(C)=O)C(C)=O)c(Cl)c1 | – | – | 12 (≈ 35.2 µM) | –
CCC(=O)C(CCCCCCOc1ccc(Cl)cc1Cl)C(=O)CC | – | – | 3 (≈ 8.04 µM) | –
CCC(=O)C(CCCCCCOc1c(F)c(F)c(F)c(F)c1F)C(=O)CC | – | – | 12 (≈ 30.4 µM) | –
CCC(=O)C(CCCCCCCCOc1ccc2c(c1)OCO2)C(=O)CC | inactive | – | – | –
CCC(=O)C(CCCCCCOc1ccccc1)C(=O)CC | – | 6 (≈ 19.7 µM) | 1.5 (≈ 4.93 µM) | –
CCC(=O)C(CCCCCCOc1ccc(OC(=O)c2ccc(C)cc2)cc1)C(=O)CC | inactive | 12 (≈ 27.4 µM) | – | –
CCC(=O)C(CCCCCCOc1ccc(O)cc1Cl)C(=O)CC | – | – | 6 (≈ 16.9 µM) | –
CCC(=O)C(CCCCCCOc1ccccc1C(F)(F)F)C(=O)CC | – | 6 (≈ 16.1 µM) | 6 (≈ 16.1 µM) | –

Structure (SMILES) | inhibition (Human alphaherpesvirus 2 [1]) | MIC (Equine rhinovirus) [mg/L] | MIC (Human alphaherpesvirus 2 [2]) [mg/L] | also measured
CCC(=O)C(CCCOc1ccc2c(c1)OCO2)C(=O)CC | inactive | – | – | –
CCC(=O)C(CCCCCCOc1ccc(C#N)cc1)C(=O)CC | inactive | – | – | –
O=c1[nH]c(=O)n([C@H]2C[C@H](O)[C@@H](CO)O2)cc1I [IDOXURIDINE] | – | – | – | MIC (Human alphaherpesvirus 1): 6 mg/L (≈ 16.9 µM); MIC (Human alphaherpesvirus 2 [3]): 6 mg/L (≈ 16.9 µM)
CCC(=O)C(CCCCCCOc1ccc(Br)cc1)C(=O)CC | – | 3 (≈ 7.83 µM) | 6 (≈ 15.7 µM) | –
CCC(=O)C(CCCCCCOc1ccc(OCc2ccccc2)cc1)C(=O)CC | – | 1.5 (≈ 3.65 µM) | 1.5 (≈ 3.65 µM) | –
CCC(=O)C(CCCCCCOc1ccc(Br)cc1Cl)C(=O)CC | – | 3 (≈ 7.18 µM) | 3 (≈ 7.18 µM) | –
CCC(=O)C(CCCCCCOc1ccccc1I)C(=O)CC | inactive | 12 (≈ 27.9 µM) | – | –
CCC(=O)C(CCCCCCOc1ccc(OC(=O)c2ccccc2)cc1)C(=O)CC | inactive | – | – | –
CCC(=O)C(CCCCOc1ccc2c(c1)OCO2)C(=O)CC | inactive | 12 (≈ 37.5 µM) | – | –
CCC(=O)C(CCCCCCOc1ccccc1F)C(=O)CC | – | 3 (≈ 9.3 µM) | 12 (≈ 37.2 µM) | –
CCOC(=O)c1ccc(OCCCCCCC(C(=O)CC)C(=O)CC)cc1 | – | 6 (≈ 15.9 µM) | 3 (≈ 7.97 µM) | –
CCC(=O)C(CCCCCCOc1ccc(OCc2ccccc2)cc1Cl)C(=O)CC | – | 3 (≈ 6.74 µM) | 3 (≈ 6.74 µM) | –
CCC(=O)C(CCCCCCOc1cc(Cl)cc(OC)c1)C(=O)CC | – | 6 (≈ 16.3 µM) | 12 (≈ 32.5 µM) | –
COc1ccc(OCCCCCCC(C(=O)C(C)(C)C)C(=O)C(C)(C)C)c(Cl)c1 | – | – | 6 (≈ 14.1 µM) | –
CCC(=O)C(CCCCCCOc1ccc(F)cc1Cl)C(=O)CC | – | 3 (≈ 8.41 µM) | 6 (≈ 16.8 µM) | –
CCC(=O)C(CCCCCOc1ccc2c(c1)OCO2)C(=O)CC | inactive | – | – | –

From ChEMBL document CHEMBL3244039, “Antiviral activity of some beta-diketones. 2. Aryloxy alkyl diketones. In vitro activity against both RNA and DNA viruses” (1977)
